Values after ≈ are worked out from the molar mass of the structure shown. One block for each compound: values may come before it.
Tests used:
Assay in all cases: ≥ marks a high value that may be exact or a test limit, other limits are often not marked, values filed in µg/mL are converted to µM
[1] = system: Escherichia coli ATCC 11219
[2] = system: Klebsiella pneumoniae ATCC 10031
[3] = system: Pseudomonas aeruginosa ATCC 13388
[4] = system: Salmonella enterica subsp. enterica serovar Typhimurium ATCC 14028
[5] = system: Staphylococcus aureus ATCC 6538
[6] = system: Escherichia coli ATCC 25922
[7] = system: Pseudomonas aeruginosa ATCC 27853
[8] = system: Staphylococcus aureus ATCC 12600
[9] = system: Streptococcus mutans ATCC 25175
[10] = system: Candida albicans ATCC 14053
[11] = system: Enterococcus faecalis ATCC 29212
[12] = system: Klebsiella pneumoniae ATCC 13883
[13] = system: Staphylococcus aureus ATCC 29213
Escherichia coli TOP 10 = system: Escherichia coli TOP 10
[14] = system: Bacillus subtilis KCTC 3068
Escherichia coli JM109 = system: Escherichia coli JM109
[15] = system: Escherichia coli KCTC 1682
[16] = system: Pseudomonas aeruginosa KCTC 1637
[17] = system: Salmonella typhimurium KCTC 1926
[18] = system: Staphylococcus aureus KCTC 1621
[19] = system: Staphylococcus epidermidis KCTC 1917
[20] = system: Bacillus subtilis KCTC 1918
[21] = system: Candida albicans TIMM 1768
[22] = system: Trichosporon beigelii KCTC 7707
Bacillus cereus AS1.126 = system: Bacillus cereus AS1.126
[23] = system: Enterobacter cloacae CGMCC 1.58
[24] = system: Enterococcus faecalis CGMCC 1.595
[25] = system: Enterococcus faecium CGMCC 1.2334
Escherichia coli AS1.349 = system: Escherichia coli AS1.349
[26] = system: Klebsiella aerogenes CGMCC 1.876
[27] = system: Klebsiella pneumoniae subsp. pneumoniae CGMCC 1.176
[28] = system: Lactococcus lactis AS1.1690
[29] = system: Pseudomonas aeruginosa CGMCC 1.860
[30] = system: Staphylococcus aureus AS1.72

MIC [1]: ≥ 50 µM
MIC [2]: 30 µM (≈ 37.8 µg/mL)
MIC [3]: 15 µM (≈ 18.9 µg/mL)
MIC [4]: 10 µM (≈ 12.6 µg/mL)
MIC [5]: 20 µM (≈ 25.2 µg/mL)
Compound: CC[C@H](C)[C@H](NC(=O)CN)C(=O)N[C@@H](C)C(=O)N[C@@H](CC(=O)O)C(=O)N[C@H](C(=O)N[C@@H](CC(C)C)C(=O)N[C@@H](CCCCN)C(=O)N[C@@H](Cc1ccc(O)cc1)C(=O)NCC(=O)N[C@@H](CCCCN)C(=O)N1CCC[C@H]1C(=O)N[C@@H](CO)C(N)=O)[C@@H](C)CC [GIADILKYGKPS]

MIC [1]: 10 µM (≈ 13.2 µg/mL)
MIC [2]: 10 µM (≈ 13.2 µg/mL)
MIC [3]: 30 µM (≈ 39.5 µg/mL)
MIC [4]: 5 µM (≈ 6.59 µg/mL)
MIC [5]: 15 µM (≈ 19.8 µg/mL)
Compound: CC[C@H](C)[C@H](NC(=O)CN)C(=O)N[C@@H](CCCCN)C(=O)N[C@@H](CC(=O)O)C(=O)N[C@H](C(=O)N[C@@H](CC(C)C)C(=O)N[C@@H](CCCCN)C(=O)N[C@@H](Cc1ccc(O)cc1)C(=O)NCC(=O)N[C@@H](CCCCN)C(=O)N1CCC[C@H]1C(=O)N[C@@H](CO)C(N)=O)[C@@H](C)CC [GIKDILKYGKPS]

MIC [1]: 5 µM (≈ 7.44 µg/mL)
MIC [2]: 5 µM (≈ 7.44 µg/mL)
MIC [3]: 20 µM (≈ 29.8 µg/mL)
MIC [4]: 20 µM (≈ 29.8 µg/mL)
MIC [5]: 2.2 µM (≈ 3.27 µg/mL)
Compound: CC[C@H](C)[C@H](NC(=O)CNC(C)=O)C(=O)N[C@@H](CCCN=C(N)N)C(=O)N[C@@H](CCCN=C(N)N)C(=O)N[C@H](C(=O)N[C@@H](CC(C)C)C(=O)N[C@@H](CCCCN)C(=O)N[C@@H](Cc1ccc(O)cc1)C(=O)NCC(=O)N[C@@H](CCCCN)C(=O)N[C@@H](CCCN=C(N)N)C(=O)N[C@@H](CO)C(N)=O)[C@@H](C)CC [GIRRILKYGKRS]

Compound: CC[C@H](C)[C@H](NC(=O)[C@H](C)NC(=O)CNC(=O)[C@H](Cc1ccccc1)NC(=O)[C@H](CC(C)C)NC(=O)CN)C(=O)N[C@@H](C)C(=O)NCC(=O)N[C@@H](Cc1ccccc1)C(=O)N[C@H](C(=O)N[C@@H](CCCCN)C(=O)NCC(=O)NCC(=O)N[C@@H](Cc1c[nH]c2ccccc12)C(=O)N[C@@H](CCC(N)=O)C(=O)NCC(=O)N[C@@H](CCSC)C(=O)N[C@H](C(=O)N[C@@H](CCCCN)C(=O)NCC(N)=O)C(C)C)[C@@H](C)CC [GLFGAIAGFIKGGWQGMVKG]
MIC [6]: 15.7 µM (≈ 31.3 µg/mL)
MIC [7]: > 62.7 µM
MIC [8]: 15.7 µM (≈ 31.3 µg/mL)
MIC [9]: 11.1 µM (≈ 22.1 µg/mL)

MIC [10]: ≥ 133 µM
MIC [11]: 133 µM (≈ 353 µg/mL)
MIC [6]: 8.36 µM (≈ 22.3 µg/mL)
MIC [12]: ≥ 33 µM
MIC [7]: 66.4 µM (≈ 177 µg/mL)
MIC [13]: 133 µM (≈ 353 µg/mL)
Compound: CC[C@H](C)[C@H](NC(=O)[C@H](CCCCN)NC(=O)[C@H](CO)NC(=O)[C@H](C)NC(=O)[C@H](Cc1c[nH]c2ccccc12)NC(=O)CN)C(=O)NCC(=O)N[C@@H](CCC(N)=O)C(=O)N[C@H](C(=O)N[C@@H](CC(C)C)C(=O)NCC(=O)N[C@@H](CCCCN)C(=O)N[C@H](C(=O)N[C@@H](C)C(=O)N[C@@H](CCCCN)C(=O)N[C@H](C(=O)NCC(=O)N[C@@H](CC(C)C)C(=O)N[C@@H](CCCCN)C(=O)N[C@@H](CCC(=O)O)C(=O)N[C@@H](CC(C)C)C(=O)N[C@H](C(=O)N[C@@H](CCC(N)=O)C(=O)N1CCC[C@H]1C(=O)N[C@@H](CCCCN)C(N)=O)[C@@H](C)CC)C(C)C)[C@@H](C)CC)[C@@H](C)O [GWASKIGQTLGKIAKVGLKELIQPK]

MIC (Escherichia coli TOP 10): 22.4 µM (≈ 50 µg/mL)
Compound: CC[C@H](C)[C@H](N)C(=O)N[C@@H](CCCCN)C(=O)N[C@@H](C)C(=O)N[C@@H](CC(C)C)C(=O)N[C@@H](CC(C)C)C(=O)N[C@@H](C)C(=O)N[C@@H](CC(C)C)C(=O)N1CCC[C@H]1C(=O)N[C@@H](CCCCN)C(=O)N[C@@H](CC(C)C)C(=O)N[C@@H](C)C(=O)N[C@@H](CCCCN)C(=O)N[C@@H](CCCCN)C(=O)N[C@H](C(=O)N[C@@H](C)C(=O)N[C@@H](CCCCN)C(=O)N[C@@H](CCCCN)C(=O)N[C@@H](Cc1ccccc1)C(=O)N[C@@H](CC(C)C)C(=O)N[C@@H](CCCCN)C(N)=O)[C@@H](C)CC [IKALLALPKLAKKIAKKFLK]

MIC [14]: 2.58 µM (≈ 5 µg/mL)
MIC (Escherichia coli JM109): 1 µM (≈ 1.94 µg/mL)
MIC [15]: 5.16 µM (≈ 10 µg/mL)
MIC [16]: 10.3 µM (≈ 20 µg/mL)
MIC [17]: 5.16 µM (≈ 10 µg/mL)
MIC [18]: 2.58 µM (≈ 5 µg/mL)
MIC [19]: 5.16 µM (≈ 10 µg/mL)
Compound: CC[C@H](C)[C@H](N)C(=O)N[C@@H](CC(C)C)C(=O)N1CCC[C@H]1C(=O)N[C@@H](Cc1c[nH]c2ccccc12)C(=O)N[C@@H](CCCCN)C(=O)N[C@@H](Cc1c[nH]c2ccccc12)C(=O)N[C@@H](CCCCN)C(=O)N[C@@H](Cc1c[nH]c2ccccc12)C(=O)N[C@@H](Cc1c[nH]c2ccccc12)C(=O)N1CCC[C@H]1C(=O)N[C@@H](Cc1c[nH]c2ccccc12)C(=O)N[C@@H](CCCN=C(N)N)C(=O)N[C@@H](CCCN=C(N)N)C(N)=O [ILPWKWKWWPWRR]

MIC (Escherichia coli TOP 10): ≥ 36 µM
Compound: CC[C@H](C)[C@H](NC(=O)[C@H](CO)NC(=O)[C@H](CCCN=C(N)N)NC(=O)[C@@H](NC(=O)[C@H](CS)NC(=O)[C@H](CO)NC(=O)[C@@H]1CCCN1C(=O)[C@H](CC(C)C)NC(=O)[C@H](Cc1ccccc1)NC(=O)[C@H](CCCN=C(N)N)NC(=O)[C@@H](N)CCCCN)C(C)C)C(=O)N[C@@H](CCC(N)=O)C(=O)N[C@@H](CC(N)=O)C(=O)N[C@@H](CC(C)C)C(=O)N[C@@H](CC(=O)O)C(=O)N[C@@H](CC(=O)O)C(=O)N[C@@H](C)C(=O)N[C@@H](CC(C)C)C(=O)N1CCC[C@H]1C(=O)N[C@H](C(=O)N1CCC[C@H]1C(=O)N[C@@H](CCC(=O)O)C(=O)N[C@@H](CCC(=O)O)C(=O)N[C@@H](Cc1ccccc1)C(N)=O)[C@@H](C)O [KRFLPSCVRSIQNLDDALPTPEEF]

MIC [20]: 6.25 µM (≈ 10.3 µg/mL)
MIC [21]: 25 µM (≈ 41.3 µg/mL)
MIC [15]: 12.5 µM (≈ 20.6 µg/mL)
MIC [16]: 12.5 µM (≈ 20.6 µg/mL)
MIC [17]: 1.56 µM (≈ 2.57 µg/mL)
MIC [18]: 12.5 µM (≈ 20.6 µg/mL)
MIC [22]: 25 µM (≈ 41.3 µg/mL)
Compound: CC(C)C[C@H](NC(=O)[C@H](CCCCN)NC(=O)[C@H](CCCCN)NC(=O)[C@H](Cc1c[nH]c2ccccc12)NC(=O)[C@@H](N)CCCCN)C(=O)N[C@@H](CC(C)C)C(=O)N[C@@H](CCCCN)C(=O)N[C@@H](CCCCN)C(=O)N1CCC[C@H]1C(=O)N[C@@H](CC(C)C)C(=O)N[C@@H](CC(C)C)C(=O)N[C@@H](CCCCN)C(=O)N[C@@H](CCCCN)C(N)=O [KWKKLLKKPLLKK]

MIC (Bacillus cereus AS1.126): 1.56 µM (≈ 1.81 µg/mL)
MIC [23]: ≥ 100 µM
MIC [24]: 25 µM (≈ 29.1 µg/mL)
MIC [25]: 25 µM (≈ 29.1 µg/mL)
MIC (Escherichia coli AS1.349): 25 µM (≈ 29.1 µg/mL)
MIC [26]: ≥ 100 µM
MIC [27]: ≥ 100 µM
MIC [28]: 12.5 µM (≈ 14.5 µg/mL)
MIC [29]: 12.5 µM (≈ 14.5 µg/mL)
MIC [30]: ≥ 50 µM
Compound: NC(N)=NCCC[C@H](NC(=O)[C@H](CCCN=C(N)N)NC(=O)[C@H](Cc1c[nH]c2ccccc12)NC(=O)[C@H](Cc1ccccc1)NC(=O)[C@H](CCCN=C(N)N)NC(=O)[C@H](CCCN=C(N)N)NC(=O)[C@@H](N)Cc1c[nH]c2ccccc12)C(=O)O [WRRFWRR]

From DBAASP
